From ChEMBL document CHEMBL4138286, “ent-Jungermannenone C Triggers Reactive Oxygen Species-Dependent Cell Differentiation in Leukemia Cells” (J Nat Prod, 2018)
The source made the active and inactive calls. The calls are words filed in the database; no cut-off is given here.

What was measured:
[1] = Cytotoxicity against PBMC (unknown origin) assessed as cell viability at 20 uM after 24 hrs by trypan blue exclusion assay relative to control; assay type: cell-based; details: read-out: Activity
SU-DHL-2 = test: Cytotoxicity against human SU-DHL-2 cells assessed as reduction in cell viability after 24 hrs by CellTiter-Glo assay; assay type: functional, cell-based; details: SU-DHL-2, 24 h
[2] = Cytotoxicity against human OCI-Ly8 cells assessed as reduction in cell viability after 24 hrs by CellTiter-Glo assay; assay type: functional, cell-based; details: OCI-Ly8, 24 h
PBMC = test: Cytotoxicity against PBMC (unknown origin) assessed as reduction in cell viability at 1 to 20 uM after 24 hrs by trypan blue exclusion assay; assay type: cell-based
NB-4 [3] = test: Induction of cell differentiation in human NB4 cells assessed as reduction in nucleus/cytoplasm ratio at 3 uM after 6 days by Wright-Giemsa staining based assay; assay type: functional
[4] = biological target: T1, Peroxiredoxin-1 (Homo sapiens) (UniProt Q06830); test: Binding affinity to wild type recombinant human N-terminal 6His-tagged peroxiredoxin-1 expressed in Escherichia coli BL21 up to 200 uM by immunoblot analysis
T1 sequence (whole entry): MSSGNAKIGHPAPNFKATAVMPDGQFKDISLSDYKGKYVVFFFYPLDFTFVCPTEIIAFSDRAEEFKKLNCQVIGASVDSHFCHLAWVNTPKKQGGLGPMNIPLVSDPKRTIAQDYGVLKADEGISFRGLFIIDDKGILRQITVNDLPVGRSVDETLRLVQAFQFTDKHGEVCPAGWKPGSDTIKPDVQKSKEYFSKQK

NB-4 [5] = test: Induction of cell differentiation in human NB4 cells at 3 uM after 6 days by light microscopy based NBT reduction assay; assay type: functional
NB-4 [6] = test: Induction of cell differentiation in human NB4 cells assessed as CD11b+ expression at 3 uM pretreated with NAC for 4 hrs followed by compound addition measured after 6 days by flow cytometry (reference value: 4.58 +/- 1.53%); assay type: functional
NB-4 [7] = test: Cytotoxicity against human NB4 cells assessed as reduction in cell viability pretreated with NAC for 4 hrs followed by compound addition measured after 24 hrs by trypan blue assay; assay type: functional, cell-based
[8] = Induction of cell differentiation in human MR2 cells assessed as CD11b+ expression at 2 uM after 3 days by flow cytometry (reference value: 4.3%); assay type: functional
NB-4 [9] = test: Potentiation of ATRA-induced cell differentiation in human NB4 cells assessed as CD11b+ expression at 3 uM after 3 days by flow cytometry (reference value: 56.1%); assay type: functional
OCI-Ly10 = test: Cytotoxicity against human OCI-LY10 cells assessed as reduction in cell viability after 24 hrs by CellTiter-Glo assay; assay type: functional, cell-based; details: OCI-Ly10, 24 h
NB-4 [10] = test: Induction of cell differentiation in human NB4 cells assessed as CD11b+ expression at 3 uM measured after 6 days by flow cytometry (reference value: 4.58 +/- 1.53%); assay type: functional
[11] = biological target: T1, Peroxiredoxin-1 (Homo sapiens); test: Binding affinity to wild type recombinant human N-terminal 6His-tagged peroxiredoxin-1 expressed in Escherichia coli BL21 after 1 hr by LC-MS/MS analysis
[12] = biological target: T2, Peroxiredoxin-2 (Homo sapiens) (UniProt P32119); test: Binding affinity to wild type recombinant human N-terminal 6His-tagged peroxiredoxin-2 expressed in Escherichia coli BL21 after 1 hr by LC-MS/MS analysis
T2 sequence (whole entry): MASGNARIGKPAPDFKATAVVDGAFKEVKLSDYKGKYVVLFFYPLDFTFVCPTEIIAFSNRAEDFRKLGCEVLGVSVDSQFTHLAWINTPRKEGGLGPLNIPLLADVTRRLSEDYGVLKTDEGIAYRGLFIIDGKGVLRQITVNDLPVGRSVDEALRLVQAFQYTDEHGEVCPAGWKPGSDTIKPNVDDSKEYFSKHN

NB-4 [13] = test: Cytotoxicity against human NB4 cells assessed as reduction in cell viability after 24 hrs by CellTiter-Glo assay; assay type: functional, cell-based; details: NB-4, 24 h
[14] = Potentiation of ATRA-induced cell differentiation in human MR2 cells assessed as CD11b+ expression at 2 uM after 3 days by flow cytometry (reference value: 24.5%); assay type: functional
NB-4 [15] = test: Cytotoxicity against human NB4 cells assessed as reduction in cell viability at 3 uM measured up to 72 hrs by trypan blue exclusion assay; assay type: functional, cell-based
[16] = Cytotoxicity against human NB4-LR2 cells assessed as reduction in cell viability after 24 hrs by CellTiter-Glo assay; assay type: functional, cell-based
Ramos = test: Cytotoxicity against human Ramos cells assessed as reduction in cell viability after 24 hrs by CellTiter-Glo assay; assay type: functional, cell-based
A549 = test: Cytotoxicity against human A549 cells assessed as reduction in cell viability after 24 hrs by CellTiter-Glo assay; assay type: functional, cell-based
NB-4 [17] = test: Induction of cell differentiation in human NB4 cells assessed as CD11b positive cells at 3 uM after 6 days by flow cytometry (reference value: 7.25 +/- 1.18%); assay type: functional
NB-4 [18] = test: Induction of ROS accumulation in human NB4 cells at 3 uM by CM-H2DCFDA probe based flow cytometry; assay type: functional, cell-based
[19] = Potentiation of ATRA-induced cell differentiation in human NB4-LR2 cells assessed as CD11b+ expression at 2 uM after 3 days by flow cytometry (reference value: 28.8%); assay type: functional
[20] = Induction of cell differentiation in human NB4-LR2 cells assessed as CD11b+ expression at 2 uM after 3 days by flow cytometry (reference value: 13.3%); assay type: functional
[21] = Induction of cell differentiation in human NB4-LR2 cells assessed as CD11b+ expression at 4 uM after 24 hrs by flow cytometry (reference value: 6.36%); assay type: functional
NB-4 [22] = test: Induction of cell differentiation in human NB4 cells assessed as CD11b+ expression at 3 uM after 3 days by flow cytometry (reference value: 7.5%); assay type: functional
HL-60 = test: Cytotoxicity against human HL60 cells assessed as reduction in cell viability after 24 hrs by CellTiter-Glo assay; assay type: functional, cell-based; details: HL-60, 24 h
U-937 = test: Induction of cell differentiation in human U937 cells assessed as CD11b+ expression at 4 uM after 24 hrs by flow cytometry (reference value: 13.46%); assay type: functional
SUD4 = test: Cytotoxicity against human SUDHL4 cells assessed as reduction in cell viability after 24 hrs by CellTiter-Glo assay; assay type: functional, cell-based; details: SU-DHL-4, 24 h

SMILES: C=C1C(=O)C2C3=C(CCC4C(C)(C)CCCC34C)CC1C2O (racemic)
- viability at 24 h, 20 µM [1]: 80%
- IC50 (SU-DHL-2): < 5 µM
- IC50 [2]: < 5 µM
- Activity (PBMC): Non-Toxic

SMILES: C=C1C(=O)[C@H]2C3=C(CC[C@H]4C(C)(C)CCC[C@]34C)C[C@@H]1[C@H]2O
- Activity (NB-4 [3]): Active
- Activity [4]: Active
- Activity (NB-4 [5]): 40%
- Activity (NB-4 [6]): 13.2%
- Activity (NB-4 [7]): inactive
- Activity [8]: 4.9%
- Activity (NB-4 [9]): 80.6%
- IC50 (OCI-Ly10): 3.7 µM
- Activity (NB-4 [10]): 44.97%
- Activity [11]: Active
- Activity [12]: Active
- IC50 (NB-4 [13]): 1.8 µM
- Activity [14]: 32.6%
- Activity (NB-4 [15]): inactive
- IC50 [16]: 1.6 µM
- IC50 (Ramos): 1.9 µM
- Activity (A549): Active
- Activity (NB-4 [17]): 40.7%
- Activity (NB-4 [18]): Active
- Activity [19]: 49.5%
- Activity [20]: 29.4%
- Activity [21]: 21.4%
- Activity (NB-4 [22]): 16.4%
- IC50 (HL-60): 1.8 µM
- Activity (U-937): 33.13%
- IC50 (SUD4): 1.3 µM

SMILES: C=C1C(=O)[C@@H]2C3=C(CC[C@@H]4C(C)(C)CCC[C@@]34C)C[C@H]1[C@@H]2O
- Activity (NB-4 [5]): 17%
- IC50 (OCI-Ly10): 8.4 µM
- IC50 (NB-4 [13]): 4.7 µM
- IC50 [16]: 3.1 µM
- IC50 (Ramos): 5.1 µM
- IC50 (HL-60): 3.1 µM
- IC50 (SUD4): 4.8 µM
